Laboratory results reported in patent US10251889B2, “Substituted pyrazolo[1,5-a]pyrimidine compounds as Trk kinase inhibitors” (Array BioPharma, Inc., priority 2009, dated 2019).

Tests used:
[1] = target: TrkA (histidine-tagged recombinant human TrkA, cytoplasmic domain) (Homo sapiens (Human), UniProt P04629); assay: TrkA ELISA assay; format: biochemical; conditions: Table 1, 500 μM ATP, read-out: TrkA Enzyme IC50
Experimental: An enzyme-linked immunosorbant assay (ELISA) was used to assess TrkA kinase activity in the presence of inhibitors. Immulon 4HBX 384-well microtiter plates (Thermo part #8755) were coated with a 0.025 mg/mL solution of poly (Glu, Ala, Tyr; 6:3:1; Sigma P3899). […] The assay buffer consisted of 25 mM MOPS pH 7.5, 0.005% (v/v) Triton X-100 and 5 mM MgCl2. The reaction mixture was removed from the plate by washing with PBS containing 0.1% (v/v) Tween 20. The phosphorylated reaction product was detected using 0.2 μg/mL of a phosphotyrosine specific monoclonal antibody (clone PY20) conjugated to horseradish peroxidase in conjunction with the TMB Peroxidase Substrate System (KPL). After the addition of 1M phosphoric acid, the chromogenic substrate color intensity was quantitated via absorbance at 450 nm.

[2] = target: Jak2 (human Jak2 kinase domain, amino acids 808-1132) (Homo sapiens (Human), UniProt O60674); assay: Jak2 inhibition assay (Omnia kinase assay); format: biochemical; conditions: for inhibition at 1 µM: read-out: Jak2 Enzyme (% inhibition at 1000 nM), Table 1, 1000 nM test compound; for IC50: Table 1, 500 μM ATP, >1000 nM when >50% inhibition not observed at 1000 nM, read-out: Jak2 Enzyme IC50
Jak2 (human Jak2 kinase domain, amino acids 808-1132), sequence (O60674 808-1132): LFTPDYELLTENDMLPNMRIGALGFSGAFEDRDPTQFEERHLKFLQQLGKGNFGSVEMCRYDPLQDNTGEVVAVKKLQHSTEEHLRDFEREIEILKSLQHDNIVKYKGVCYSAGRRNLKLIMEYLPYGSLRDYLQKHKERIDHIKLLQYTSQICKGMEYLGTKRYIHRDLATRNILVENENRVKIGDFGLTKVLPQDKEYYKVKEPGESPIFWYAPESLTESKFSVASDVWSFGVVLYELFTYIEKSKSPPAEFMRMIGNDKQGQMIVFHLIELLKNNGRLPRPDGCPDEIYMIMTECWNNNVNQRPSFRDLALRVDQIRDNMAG

TrkA (histidine-tagged recombinant human TrkA, cytoplasmic domain), sequence (P04629 440-796): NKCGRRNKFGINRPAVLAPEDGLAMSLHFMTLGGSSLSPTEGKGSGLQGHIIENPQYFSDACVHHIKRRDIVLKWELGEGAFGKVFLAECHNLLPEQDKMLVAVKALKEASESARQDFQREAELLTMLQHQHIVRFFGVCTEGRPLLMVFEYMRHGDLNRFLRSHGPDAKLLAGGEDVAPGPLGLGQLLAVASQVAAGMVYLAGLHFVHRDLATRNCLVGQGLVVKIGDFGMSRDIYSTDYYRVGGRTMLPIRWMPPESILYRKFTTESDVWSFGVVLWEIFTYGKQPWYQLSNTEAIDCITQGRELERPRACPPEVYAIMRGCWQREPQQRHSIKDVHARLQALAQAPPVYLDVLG

## O=C(N[C@@H]1CCC[C@H]1O)c1cnn2ccc(N3CCC[C@@H]3c3cncc(F)c3)nc12 [Example 133, 5-((R)-2-(5-fluoropyridin-3-yl)pyrrolidin-1-yl)-N-((1R,2R)-2-hydroxycyclopentyl)pyrazolo[1,5-a]pyrimidine-3-carboxamide]
[1]
  IC50: 16 nM
[2]
  inhibition at 1 µM: 14.4%

## C[C@@H](NC(=O)c1cnn2ccc(N3CCC[C@@H]3c3cncc(F)c3)nc12)C(F)(F)F [Example 129, 5-((R)-2-(5-fluoropyridin-3-yl)pyrrolidin-1-yl)-N-((R)-1,1,1-trifluoropropan-2-yl)pyrazolo[1,5-a]pyrimidine-3-carboxamide]
[1]
  IC50: 8 nM
[2]
  IC50: > 1000 nM
  inhibition at 1 µM: 25.2%

## CCc1ncc(F)cc1[C@H]1CCCN1c1ccn2ncc(C(=O)N[C@H]3CC[C@H](O)C3)c2n1 [Example 200, 5-((R)-2-(2-ethyl-5-fluoropyridin-3-yl)pyrrolidin-1-yl)-N-((1S,3S)-3-hydroxycyclopentyl)pyrazolo[1,5-a]pyrimidine-3-carboxamide]
[1]
  IC50: 12.7 nM
[2]
  IC50: > 1000 nM
  inhibition at 1 µM: 12.5%
